# Data from patent US10221161B2, “Inhibitors of plasma kallikrein” (Kalvista Pharmaceuticals Limited, priority 2013, dated 2019).
# pIC50: −log10 of the molar value.
# What was measured:
# Human plasma kallikrein = Human plasma kallikrein (Homo sapiens (Human), UniProt P03952); assay: Determination of the IC50 for plasma kallikrein (fluorogenic substrate H-DPro-Phe-Arg-AFC); assay type: biochemical; conditions: 37° C., read-out: IC50 (human PKal)
# Protocol: Determination of the IC50 Plasma Kallikrein Plasma kallikrein inhibitory activity in vitro was determined using standard published methods (see e.g. Johansen et al., Int. J. Tiss. […] Shori et al., Biochem. Pharmacol., 1992, 43, 1209; Stürzebecher et al., Biol. Chem. Hoppe-Seyler, 1992, 373, 1025). Human plasma kallikrein (Protogen) was incubated at 37° C. with the fluorogenic substrate […] and various concentrations of the test compound.
# Human KLK1 = Human KLK1 (Homo sapiens (Human), UniProt P06870); assay: Determination of the IC50 for KLK1 (fluorogenic substrate H-DVal-Leu-Arg-AFC); assay type: biochemical; conditions: human KLK1, 37° C.
# Sequence of Human KLK1 (P06870 25-262): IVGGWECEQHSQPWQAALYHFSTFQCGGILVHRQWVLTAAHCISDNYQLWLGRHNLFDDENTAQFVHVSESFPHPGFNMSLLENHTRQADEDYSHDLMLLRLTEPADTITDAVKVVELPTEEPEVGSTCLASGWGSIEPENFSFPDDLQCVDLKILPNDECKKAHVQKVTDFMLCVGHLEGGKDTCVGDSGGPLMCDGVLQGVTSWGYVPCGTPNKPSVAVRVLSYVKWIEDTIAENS
# Protocol: Selected compounds were further screened for inhibitory activity against the related enzyme KLK1. The ability of the compounds of formula (I) to inhibit KLK1 may be determined using the following biological assay:
# Determination of the IC50 for KLK1
# KLK1 inhibitory activity in vitro was determined using standard published methods (see e.g. Johansen et al., Int. J. Tiss. Reac. 1986, 8, 185; Shori et al., Biochem. Pharmacol., 1992, 43, 1209; Stürzebecher et al., Biol. Chem. Hoppe-Seyler, 1992, 373, 1025). Human KLK1 (Callbiochem) was incubated at 37° C. with the fluorogenic substrate H-DVal-Leu-Arg-AFC and various concentrations of the test compound. Residual enzyme activity (initial rate of reaction) was determined by measuring the change in optical absorbance at 410 nm and the IC50 value for the test compound was determined.
# Sequence of Human plasma kallikrein (P03952 391-638 limits assumed): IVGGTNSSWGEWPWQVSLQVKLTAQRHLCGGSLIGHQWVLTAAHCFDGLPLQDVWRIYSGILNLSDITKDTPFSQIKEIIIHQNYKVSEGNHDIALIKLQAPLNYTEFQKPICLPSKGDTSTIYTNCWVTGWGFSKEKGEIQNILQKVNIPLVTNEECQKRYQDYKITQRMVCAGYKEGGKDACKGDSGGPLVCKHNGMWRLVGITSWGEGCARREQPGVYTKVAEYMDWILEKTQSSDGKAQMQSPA
# Sequence of Human plasma kallikrein (P03952 20-390 partner limits assumed): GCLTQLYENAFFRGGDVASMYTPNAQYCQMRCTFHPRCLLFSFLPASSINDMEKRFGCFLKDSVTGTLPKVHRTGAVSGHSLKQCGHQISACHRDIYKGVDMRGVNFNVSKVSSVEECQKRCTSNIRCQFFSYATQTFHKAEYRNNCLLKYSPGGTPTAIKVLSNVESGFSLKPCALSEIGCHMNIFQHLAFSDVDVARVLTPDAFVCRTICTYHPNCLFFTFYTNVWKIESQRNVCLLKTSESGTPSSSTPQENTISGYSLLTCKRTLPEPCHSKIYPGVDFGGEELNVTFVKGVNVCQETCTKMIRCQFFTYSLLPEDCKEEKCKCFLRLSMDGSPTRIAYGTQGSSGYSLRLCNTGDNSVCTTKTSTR
Compound,pIC50 (Human plasma kallikrein),pIC50 (Human KLK1)
"Nc1nccc2cc(CNC(=O)c3cncc(Cc4ccc5ccncc5c4)c3)ccc12 [Example 28, N-[(1-Aminoisoquinolin-6-yl)methyl]-5-(isoquinolin-7-ylmethyl)pyridine-3-carboxamide]",5.96,5.23
"CC(C)Oc1ccc(Cc2cncc(C(=O)NCc3ccc4c(N)nccc4c3)c2)cn1 [Example 70, N-[(1-Aminoisoquinolin-6-yl)methyl]-5-[(6-isopropoxypyridin-3-yl)methyl]pyridine-3-carboxamide]",5.76,< 5.00
"Cn1cc(CN2CCN(Cc3cncc(C(=O)NCc4ccc5c(N)nccc5c4)c3)CC2)cn1 [Example 47, N-[(1-Aminoisoquinolin-6-yl)methyl]-5-({4-[(1-methylpyrazol-4-yl)methyl]piperazin-1-yl}methyl)pyridine-3-carboxamide]",4.40,< 4.40
"Cc1cnn(Cc2ccc(Cc3cc(C(=O)NCc4ccc5c(N)nccc5c4)ncn3)cc2)c1 [Example 8, N-[(1-Aminoisoquinolin-6-yl)methyl]-6-({4-[(4-methylpyrazol-1-yl)methyl]phenyl}methyl)pyrimidine-4-carboxamide]",6.92,4.55
"Nc1nccc2cc(CNC(=O)c3cncc(Cc4cccc(Cn5cccn5)c4)c3)ccc12 [Example 32, N-[(1-Aminoisoquinolin-6-yl)methyl]-5-{[3-(pyrazol-1-ylmethyl)phenyl]methyl}pyridine-3-carboxamide]",6.63,5.02
"Nc1nccc2cc(CNC(=O)c3cncc(CN4CCN(Cc5ccccc5F)CC4)c3)ccc12 [Example 44, N-[(1-Aminoisoquinolin-6-yl)methyl]-5-({4-[(2-fluorophenyl)methyl]piperazin-1-yl}methyl)pyridine-3-carboxamide]",5.17,4.55
"Nc1nccc2cc(CNC(=O)c3cncc(CN4CCN(C(=O)c5ccccc5)CC4)c3)ccc12 [Example 36, N-[(1-Aminoisoquinolin-6-yl)methyl]-5-[(4-benzoylpiperazin-1-yl)methyl]pyridine-3-carboxamide]",5.18,4.62
"Nc1nccc2cc(CNC(=O)c3cncc(CN4CCN(CC(=O)O)CC4)c3)ccc12 [Example 52, {4-[(5-{[(1-Aminoisoquinolin-6-yl)methyl]carbamoyl}pyridin-3-yl)methyl]piperazin-1-yl}acetic acid]",5.00,< 5.00
"Cc1ccc2cc(Cc3cnc(O)c(C(=O)NCc4ccc5c(N)nccc5c4)c3)ccc2n1 [Example 20, N-[(1-Aminoisoquinolin-6-yl)methyl]-5-[(2-methylquinolin-6-yl)methyl]-2-oxo-1H-pyridine-3-carboxamide]",6.21,5.60
"CC(C)N(C)c1ccc(Cc2cncc(C(=O)NCc3ccc4c(N)nccc4c3)c2)cn1 [Example 73, N-[(1-Aminoisoquinolin-6-yl)methyl]-5-({6-[isopropyl(methyl)amino]pyridin-3-yl}methyl)pyridine-3-carboxamide]",7.29,5.17
"Cc1cnn(Cc2ccc(Cc3cnnc(C(=O)NCc4ccc5c(N)nccc5c4)c3)cc2)c1 [Example 11, N-[(1-Aminoisoquinolin-6-yl)methyl]-5-({4-[(4-methylpyrazol-1-yl)methyl]phenyl}methyl)pyridazine-3-carboxamide]",7.08,4.43
"Nc1nccc2cc(CNC(=O)c3cncc(Cc4csc(-c5ccccc5)n4)c3)ccc12 [Example 24, N-[(1-Aminoisoquinolin-6-yl)methyl]-5-[(2-phenyl-1,3-thiazol-4-yl)methyl]pyridine-3-carboxamide]",5.77,5.40
"COc1cccc(Cc2cncc(C(=O)NCc3ccc4c(N)nccc4c3)c2)c1 [Example 25, N-[(1-Aminoisoquinolin-6-yl)methyl]-5-[(3-methoxyphenyl)methyl]pyridine-3-carboxamide]",5.58,5.21
"Cc1cnn(Cc2ccc(Cc3cncc(C(=O)NCc4ccc5c(N)nccc5c4)c3)cc2)c1 [Example 1, N-[(1-Aminoisoquinolin-6-yl)methyl]-({4-[(4-methylpyrazol-1-yl)methyl]phenyl}methyl)pyridine-3-carboxamide]",,< 5.00
Cc1cnn(Cc2ccc(Cc3cncc(C(=O)NCc4cnc5[nH]ccc5c4)c3)cc2)c1 [Example 2],,< 5.00
"Cc1cnn(Cc2ccc(C(O)c3cncc(C(=O)NCc4ccc5c(N)nccc5c4)c3)cc2)c1 (stereo not shown) [Example 7, N-((1-Aminoisoquinolin-6-yl)methyl)-5-(hydroxy(4-((4-methyl-1H-pyrazol-1-yl)methyl)phenyl)methyl)nicotinamide]",7.45,5.10
"Cc1cnn(CCOCc2cncc(C(=O)NCc3ccc4c(N)nccc4c3)c2)c1 [Example 40, N-[(1-Aminoisoquinolin-6-yl)methyl]-5-{[2-(4-methylpyrazol-1-yl)ethoxy]methyl}pyridine-3-carboxamide]",6.90,5.31
"Nc1nccc2cc(CNC(=O)c3ccc(=O)n(Cc4ccc(Cn5ccccc5=O)cc4)c3)ccc12 [Example 5, N-[(1-Aminoisoquinolin-6-yl)methyl]-6-oxo-1-({4-[(2-oxopyridin-1-yl)methyl]phenyl}methyl)pyridine-3-carboxamide]",7.61,4.54
"Nc1nccc2cc(CNC(=O)c3cncc(CN4CCN(c5ccccc5)CC4)c3)ccc12 [Example 39, N-[(1-Aminoisoquinolin-6-yl)methyl]-5-[(4-phenylpiperazin-1-yl)methyl]pyridine-3-carboxamide]",5.00,
Cc1cnn(Cc2ccc(Cc3ccnc(C(=O)NCc4cnc5[nH]ccc5c4)c3)cc2)c1 [Example 4],,< 4.40

# Now from value to compound:
pIC50 (Human plasma kallikrein),pIC50 (Human KLK1),Compound
6.38,5.22,"Nc1nccc2cc(CNC(=O)c3cncc(Cc4ccc(N5CCC(O)C5)nc4)c3)ccc12 (stereo not shown) [Example 59, N-[(1-Aminoisoquinolin-6-yl)methyl]-5-{[6-(3-hydroxypyrrolidin-1-yl)pyridin-3-yl]methyl}pyridine-3-carboxamide]"
6.36,< 5.00,"Nc1nccc2cc(CNC(=O)c3cncc(Cc4ccc(N5CCOCC5)nc4)c3)ccc12 [Example 63, N-[(1-Aminoisoquinolin-6-yl)methyl]-5-{[6-(morpholin-4-yl)pyridin-3-yl]methyl}pyridine-3-carboxamide]"
7.56,5.95,"Cc1ccc2cc(Cc3cncc(C(=O)NCc4ccc5c(N)nccc5c4)c3)ccc2n1 [Example 17, N-[(1-Aminoisoquinolin-6-yl)methyl]-5-[(2-methylquinolin-6-yl)methyl]pyridine-3-carboxamide]"
5.81,5.41,"CN(C)[C@@H]1CCN(c2cc(Cc3cncc(C(=O)NCc4ccc5c(N)nccc5c4)c3)ccn2)C1 (stereo in doubt) [Example 90, N-[(1-Aminoisoquinolin-6-yl)methyl]-5-({2-[3-(dimethylamino)pyrrolidin-1-yl]pyridin-4-yl}methyl)pyridine-3-carboxamide]"
7.17,5.40,"Nc1nccc2cc(CNC(=O)c3cncc(Cc4ccnc(N5CCC(F)C5)c4)c3)ccc12 (stereo not shown) [Example 82, N-[(1-Aminoisoquinolin-6-yl)methyl]-5-{[2-(3-fluoropyrrolidin-1-yl)pyridin-4-yl]methyl}pyridine-3-carboxamide]"
6.50,< 4.40,"Nc1nccc2cc(CNC(=O)c3cncc(Cc4ccc(N5CCCCC5)nc4)c3)ccc12 [Example 56, N-[(1-Aminoisoquinolin-6-yl)methyl]-5-{[6-(piperidin-1-yl)pyridin-3-yl]methyl}pyridine-3-carboxamide]"
6.97,5.54,"CC1CCN(c2cc(Cc3cncc(C(=O)NCc4ccc5c(N)nccc5c4)c3)ccn2)C1 (stereo not shown) [Example 83, N-[(1-Aminoisoquinolin-6-yl)methyl]-5-{[2-(3-methylpyrrolidin-1-yl)pyridin-4-yl]methyl}pyridine-3-carboxamide]"
6.79,5.16,"Nc1nccc2cc(CNC(=O)c3cncc(Cc4ccnc(N5CCCCC5)c4)c3)ccc12 [Example 78, N-[(1-Aminoisoquinolin-6-yl)methyl]-5-{[2-(piperidin-1-yl)pyridin-4-yl]methyl}pyridine-3-carboxamide]"
6.82,5.19,"CC1CCCN1c1ccc(Cc2cncc(C(=O)NCc3ccc4c(N)nccc4c3)c2)cn1 (stereo not shown) [Example 58, N-[(1-Aminoisoquinolin-6-yl)methyl]-5-{[6-(2-methylpyrrolidin-1-yl)pyridin-3-yl]methyl}pyridine-3-carboxamide]"
6.21,5.27,"CN1CCN(c2ccc(Cc3cncc(C(=O)NCc4ccc5c(N)nccc5c4)c3)cn2)CC1 [Example 64, N-[(1-Aminoisoquinolin-6-yl)methyl]-5-{[6-(4-methylpiperazin-1-yl)pyridin-3-yl]methyl}pyridine-3-carboxamide]"
6.62,5.43,"Nc1nccc2cc(CNC(=O)c3cncc(Cc4ccnc(N5CCCC5=O)c4)c3)ccc12 [Example 76, N-[(1-Aminoisoquinolin-6-yl)methyl]-5-{[2-(2-oxopyrrolidin-1-yl)pyridin-4-yl]methyl}pyridine-3-carboxamide]"
